The values that follow come from US10874106B2, “Method of regulating plant growth” (ROTAM AGROCHEM INTERNATIONAL COMPANY LIMITED, priority 2012, dated 2020).

What all share (format): in vivo
Assay [1] deals with potato plants. Briefly: Growth of young potato plants treated with clomazone versus untreated plants. The protocol:
(§1) Sugarcane plants are treated by the application of a commercially available concentrate formulation of clomazone (Centium 360 CS®; a suspension concentrate of microencapsulated clomazone at a concentration of 360 g/l). The concentrate formulation is dispersed in water and diluted, in a manner conventional in the art, to give an aqueous spray composition. The spray composition is applied to the sugarcane plants in an amount to apply clomazone at a rate of 120 g/hectare.
Young potato plants are treated in an analogous manner to that described in Example 1.
The growth of the potato plants is monitored and compared with the growth of potato plants of the same age and grown under the same conditions, but without treatment with clomazone.

The test system of assay [2] is oilseed rape plants. Briefly: Growth of young oilseed rape plants treated with clomazone versus untreated plants. The protocol:
as §1
Young oilseed rape plants are treated in an analogous manner to that described in Example 1.
The growth of the oilseed rape plants is monitored and compared with the growth of oilseed rape plants of the same age and grown under the same conditions, but without treatment with clomazone.

Assay [3] has as its system sugarcane plants. Put plainly: Growth of sugarcane plants treated with clomazone versus untreated plants. As for the experimental part:
as §1
The growth of the sugarcane plants is monitored and compared with the growth of sugarcane plants grown under the same conditions, but without treatment with clomazone.

Assay [4] deals with rice plants. Put plainly: Growth of young rice plants treated with clomazone versus untreated plants. As for the experimental part: as §1
Young rice plants are treated in an analogous manner to that described in Example 1.
The growth of the rice plants is monitored and compared with the growth of rice plants of the same age and grown under the same conditions, but without treatment with clomazone.

For assay [5], the system named is soybean plants. Briefly: Growth of young soybean plants treated with clomazone versus untreated plants. The protocol:
as §1
Young soybean plants are treated in an analogous manner to that described in Example 1.
The growth of the soybean plants is monitored and compared with the growth of soybean plants of the same age and grown under the same conditions, but without treatment with clomazone.

The mark [6] stands for this setting: treated analogously to Example 1.
Where [7] appears, read: treated analogously to Example 1, versus untreated plants.
Setting [8] is: clomazone 120 g/hectare spray, versus untreated plants.

As for `CC1(C)CON(Cc2ccccc2Cl)C1=O` [clomazone, 2-(2-chlorophenyl)methyl-4,4-dimethyl-3-isoxazolidinone], the “growth of the treated plants in comparison to the untreated plants” value was “significantly improved” in assay [1] (setting [6]); “significantly improved” in assay [2] (setting [6]); “significantly improved” in assay [3] (Centium 360 CS diluted in water, sprayed, clomazone 120 g/hectare); “significantly improved” in assay [4] (setting [6]); “significantly improved” in assay [5] (setting [6]). Further, the average height entry in assay [1] (setting [7]), in assay [2] (setting [7]), in assay [3] (setting [8]), in assay [4] (setting [7]) and in assay [5] (setting [7]) was “greater” throughout. Further, the “average leaf blade area” value in assay [1] (setting [7]), in assay [2] (setting [7]), in assay [3] (setting [8]), in assay [4] (setting [7]) and in assay [5] (setting [7]) was “larger” each time. The shoot growth entry in assay [1] (setting [7]), in assay [2] (setting [7]), in assay [3] (setting [8]), in assay [4] (setting [7]) and in assay [5] (setting [7]) was “increased” throughout.
